What all share (type): functional
In assay [1] the test system is Candida albicans. The experiment in a line: Synergistic antifungal activity against FLC-resistant Candida albicans 512644 assessed as fractional inhibitory concentration index incubated for 48 hrs in presence of FLC by broth microdilution method.
Assay [2] deals with Candida albicans. Description: Synergistic antifungal activity against FLC-resistant Candida albicans 64548 assessed as fungal growth inhibition incubated for 48 hrs in presence of FLC by broth microdilution method. A general note: Broth dilution looks for growth in wells or tubes with falling amounts of substance.
In assay [3] the test system is Candida albicans. The experiment in a line: Synergistic antifungal activity against FLC-resistant Candida albicans 12 assessed as fungal growth inhibition incubated for 48 hrs in presence of FLC by broth microdilution method.

As a reminder, the MIC is the lowest concentration found to suppress growth.

As to `CCN(CC)c1ccc(C(NC(=O)C(C)C)c2ccc3cccnc3c2O)cc1` (stereo not drawn), in assay [1], the “fractional inhibitory concentration index (FICI)” value is reported as 0.047. Besides, the MIC was 0.031 µg/mL in assay [2] and 0.008 µg/mL in assay [3].

Values taken from ChEMBL document CHEMBL5375952, “Discovery of Novel 8-Hydroxyquinoline Derivatives with Potent In Vitro and In Vivo Antifungal Activity” (J Med Chem, 2023).
